Assay results from patent US4888417A, “Therapeutic and prophylactic agents for peptic ulcer” (Green Cross Corporation, priority 1985, dated 1989).

Tests used:
Serotonin Induced Ulcer = test: Serotonin Induced Ulcer; format: in vivo, Wister strain male rats; design: unit not given here; details: 30 min before serotonin; for Ulcer Index: mean ± standard error (n=8)
Procedure: Wister strain male rats (weighing 160 to 180 g) were used after one day's fasting. Serotonin creatinine sulfate (30 mg/ml) was subcutaneously administered to the rats on the back at a rate of 1 ml per kg of the body weight. The stomach was excised 5 hours after administration of serotonin, and the total area of hemorrhagic erosion was measured as an ulcer index. The test drug was intragastrically administered to the rats through an oral Zonde (probe) 30 minutes before administration of serotonin.
(§1) Each numeral in the table indicates the mean ± standard error (n=8)
(§2) All the test drugs (compounds of this invention) were intragastrically administered by an oral Zonde (probe).

Ethanol Induced Ulcer = test: Ethanol Induced Ulcer; format: in vivo, Wister strain male rats; design: Rate of Inhibition: unit not given here; details: 30 min before ethanol; for Ulcer Index: mean ± standard error (n=8)
Procedure: Wister strain male rats (weighing 160-180 g) were fasted for one day and intragastrically administed with 50% (v/v) ethanol at a rate of 1 ml per rat. The test drug was intragastirically administered through an oral Zonde (probe) 30 minutes before administration of ethanol. One hour after administration of ethanol, the rats were poisoned to death by inhalation of chloroform, each stomach was excised, the major axis of hemorrhagic erosion on the stomach part was measured, and the total was made an ulcer index.
as §1, §2

[1] = anti-ulcer activity used as index in fractionation; details: single (peak) component from HPLC fractionation of cinnamon extract
Procedure: After washing with water, the resin was eluted using a 40 to 80% methanol aqueous solution as an eluent; the eluted fraction thus obtained was concentrated under reduced pressure and freeze dried to afford 148 g of a crude powder.
50 kg of cinnamon was treated with hot water at 60° to 100° C. for 1 to 2 hours, and the resultant extract was adsorbed onto 100 to 140 liters of the Amberlite XAD-2 resin. This resin was washed with water, then eluted using a 40 to 80% aqueous methanol solution as an eluent; the eluted fraction thus obtained was concentrated under reduced pressure and freeze dried to obtain 148 g of a crude powder.
200 kg of cinammon was treated with hot water at 60° to 100° C. for 1 to 2 hours, and the resultant extract was adsorbed onto 400 to 500 liters of the Amberlite XAD-2 resin. This resin was washed with water, then eluted with a 40 to 80% aqueous methanol solution as an eluent, the eluted fraction thus obtained was concentrated under reduced pressure and freeze-dried to obtain 590 g of a crude powder.

Stress Ulcer = test: Stress Ulcer; format: in vivo, Wister strain male rats; details: immediately before stress; for Ulcer Index: mean ± standard error (n=8)
Procedure: Wister strain male rats (weighing 230-250 g) were fasted for 2 days, then, while confined in a Tokyo University Pharmaceutics Laboratory model cage, they were immersed up to the xiphocosta and pulled up 6 hours later, to determine the ulcer index. That is, the rats were clubbed to death, the major axis of hemorrhagic erosion was measured, and the total was made the ulcer index. the test drug was intragastrically administered through an oral Zonde (probe) immediately before the loading of stress.
as §1, §2

COc1cc(O)cc(OC)c1OC [(II-2), 3,4,5-trimethoxyphenol]
Rate of Inhibition (Serotonin Induced Ulcer; 0.05 μg/kg intragastric): 26.7
Ulcer Index (Serotonin Induced Ulcer; 0.05 μg/kg intragastric): 15.1 ± 4.6
Rate of Inhibition (Serotonin Induced Ulcer; 0.15 μg/kg intragastric): 45.6
Ulcer Index (Serotonin Induced Ulcer; 0.15 μg/kg intragastric): 11.2 ± 2.4

COc1cc(O[C@@H]2O[C@H](CO[C@@H]3OC[C@](O)(CO)[C@H]3O)[C@@H](O)[C@H](O)[C@H]2O)cc(OC)c1OC [(II-1), 3,4,5-trimethoxyphenol-β-D-apiofranosyl-(1→6)-β-D-glucopyranoside]
Rate of Inhibition (Ethanol Induced Ulcer; 0.15 μg/kg intragastric): 11.1
Ulcer Index (Ethanol Induced Ulcer; 0.15 μg/kg intragastric): 45.3 ± 14.0
Rate of Inhibition (Ethanol Induced Ulcer; 0.30 μg/kg intragastric): 47.1
Ulcer Index (Ethanol Induced Ulcer; 0.30 μg/kg intragastric): 27.0 ± 7.4
Rate of Inhibition (Serotonin Induced Ulcer; 0.15 μg/kg intragastric): 57.1
Ulcer Index (Serotonin Induced Ulcer; 0.15 μg/kg intragastric): 7.5 ± 2.3
Rate of Inhibition (Serotonin Induced Ulcer; 0.30 μg/kg intragastric): 70.9
Ulcer Index (Serotonin Induced Ulcer; 0.30 μg/kg intragastric): 5.1 ± 1.9
anti-ulcer activity among fractions [1]: manifesting the activity most strongly
Rate of Inhibition (Stress Ulcer; 0.15 μg/kg intragastric): 23.7
Ulcer Index (Stress Ulcer; 0.15 μg/kg intragastric): 21.6 ± 5.8
Rate of Inhibition (Stress Ulcer; 0.30 μg/kg intragastric): 58.5
Ulcer Index (Stress Ulcer; 0.30 μg/kg intragastric): 11.7 ± 3.0

CC(=O)C=C=C1C(C)(C)CC(O[C@@H]2O[C@H](CO[C@@H]3OC[C@](O)(CO)[C@H]3O)[C@@H](O)[C@H](O)[C@H]2O)CC1(C)O (stereo partly drawn) [(III-1)]
Rate of Inhibition (Ethanol Induced Ulcer; 0.075 μg/kg intragastric): 51.6
Ulcer Index (Ethanol Induced Ulcer; 0.075 μg/kg intragastric): 24.7 ± 10.6
Rate of Inhibition (Ethanol Induced Ulcer; 0.15 μg/kg intragastric): 56.5
Ulcer Index (Ethanol Induced Ulcer; 0.15 μg/kg intragastric): 22.2 ± 8.1
Rate of Inhibition (Serotonin Induced Ulcer; 0.075 μg/kg intragastric): 2.9
Ulcer Index (Serotonin Induced Ulcer; 0.075 μg/kg intragastric): 17.0 ± 3.1
Rate of Inhibition (Serotonin Induced Ulcer; 0.15 μg/kg intragastric): 75.4
Ulcer Index (Serotonin Induced Ulcer; 0.15 μg/kg intragastric): 4.3 ± 1.1
anti-ulcer activity among fractions [1]: manifesting the activity most strongly
Rate of Inhibition (Stress Ulcer; 0.075 μg/kg intragastric): 41.3
Ulcer Index (Stress Ulcer; 0.075 μg/kg intragastric): 16.6 ± 3.2
Rate of Inhibition (Stress Ulcer; 0.15 μg/kg intragastric): 66.8
Ulcer Index (Stress Ulcer; 0.15 μg/kg intragastric): 9.4 ± 2.3

CC1=C(/C=C/C(CO)CO)C(C)(CO[C@@H]2O[C@H](CO)[C@@H](O)[C@H](O)[C@H]2O)CCC1=O (stereo partly drawn) [(IV-1), 2,4-dimethyl-3-(4-hydroxy-3-hydroxymethyl-1-butenyl)-4-(β-D-glucopyranosyl)oxymethyl-2-cyclohexen-1-one]
Rate of Inhibition (Serotonin Induced Ulcer; 0.1 μg/kg intragastric): 47.0
Ulcer Index (Serotonin Induced Ulcer; 0.1 μg/kg intragastric): 7.1 ± 3.4
Rate of Inhibition (Serotonin Induced Ulcer; 1 μg/kg intragastric): 51.5
Ulcer Index (Serotonin Induced Ulcer; 1 μg/kg intragastric): 6.5 ± 2.5
anti-ulcer activity among fractions [1]: manifesting the activity most strongly

CC1=C(/C=C/C(CO)CO)C(C)(CO)CCC1=O (stereo not drawn) [(IV-2)]
Rate of Inhibition (Serotonin Induced Ulcer; 0.06 μg/kg intragastric): 65.7
Ulcer Index (Serotonin Induced Ulcer; 0.06 μg/kg intragastric): 4.6 ± 1.2
Rate of Inhibition (Serotonin Induced Ulcer; 6 μg/kg intragastric): 76.9
Ulcer Index (Serotonin Induced Ulcer; 6 μg/kg intragastric): 3.1 ± 1.2
